{
  "source": "patent US8729047B2",
  "about": "“Compositions for inhibiting redox-sensitive GTPases” (Board of Regents, The University of Texas System, priority 2010, dated 2014)",
  "key": {"RhoA": {"target": "T1, RhoA (Rattus norvegicus, UniProt P61589)", "T1 construct": "endogenous in cells; host or cells: A7r5 cells (rat aortic vascular smooth muscle)", "test": "Co-IP ESI-MS of thioguanine nucleotide disulfide adduct in A7r5 cells", "format": "cell-based", "details": "for thioguanine nucleotide-RhoA disulfide adduct (Cys20): FIGS. 21, 22", "experimental": "FIG. 21. Detection of 6-TGNP adduct from A7r5 and T cells. Experimental procedures using A7r5 (A and B) and T (C and D) cells, respectively, were identical to those of the experiments described in FIG. 19 and previous studies (Tiede et al. J. Clin. Invest. 111, 1133-1145 (2003); and Poppe et al. J. Immunol. 176, 640-651 (2006)). The cell extract was incubated with a monoclonal RhoA antibody (A and B) or a Rac1 antibody (C and D) coupled with resin. Resin was collected by centrifugation (5,000×g, 10 min), which was suspended in 50% methanol:0.1% formic acid. The protein portion was separated by brief centrifugation (3,000×g for 5 min), resuspended in a buffer containing 10 mM EDTA and 5 mM phosphate (pH 7.5), digested with trypsin for 10 h, and analyzed with MS. The MS peak at 1476.6 Da represents peptide-6-TGDP adduct; TC^20LLIVFSK-6-TGDP.\nFIG. 22. Detection of 8-TGNP adduct from A7r5 cells. […] The indicated MS peak at 1476.6 Da represents peptide-8-TGDP adduct; TC^20LLIVFSK-8-TGDP (SEQ ID NO:4). The molecular weight of the peptide-8-TGDP adduct is exactly the same as that of the peptide-6-TGDP adduct. A and B, respectively, represent any of samples taken from a cell culture with and without treatment with 8-TG."}, "RhoC": {"target": "RhoC (Homo sapiens, UniProt P08134)", "sequence (P08134 whole entry)": "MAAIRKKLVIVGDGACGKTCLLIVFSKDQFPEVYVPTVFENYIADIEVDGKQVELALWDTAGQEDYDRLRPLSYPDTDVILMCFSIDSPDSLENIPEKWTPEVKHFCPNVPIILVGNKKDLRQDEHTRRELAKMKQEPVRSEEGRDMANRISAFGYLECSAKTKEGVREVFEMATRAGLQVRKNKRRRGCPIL", "test": "Competitive binding assay, [3H]GDP-loaded Rho protein titrated with 6-TGDP (FIG. 16A)", "parameters": "made in house; host or cells: E. coli", "experimental": "(§1) FIG. 16. Kinetic properties of RhoC with 6-TGDP in the presence or absence of a redox agent. All kinetic analyses are described elsewhere herein. (A) ^appKD values of Rac1, RhoA, RhoC, and RhoC C20S for 6-TGDP were estimated to be 7.9, 11.6, 11.8, and 11.2 μM, respectively. ^trueKD values of Rac1, RhoA, […] for 6-TGDP were then calculated to be 5.1, 10.8, 11.1, and 10.5 μM, respectively, by using a compensation equation, ^trueKD for 6-TGDP=^appKD for 6-TGDP/(1+[[^3H]GDP]/^trueKD for GDP) (Heo, J., and Hong, I. (2010) Biochemistry 49, 3965-3976), in conjunction with the values given. […] The GDP dissociation rates from RhoC C20S by NO, .NO2, and N2O3 were estimated to be 0.02×10^−3, 0.05×10^−3, and 0.04×10^−3 s^−1, respectively. […] (D) ^appKD values of RhoC for [^3H]GDP in the presence or absence of DTT were estimated to be 22.4 μM and […], respectively. ^appKD values of C20S RhoC for [^3H]GDP in the presence or absence of DTT were determined to be 24.8 μM and 25.2 μM, respectively. The regression values associated with these fits were >0.8595. All data points associated with vertical standard error bars shown in this figure are the mean values of triplicate measurements.\n(§2) Transition metal-free assay buffer and vials as described in a previous study (Heo et al. Biochemistry 49, 3965-3976 (2010)) were used for all kinetic assays. The kinetic assay buffer contains the highest grade of 50 mM NaCl, 10 mM MgCl2, 1 mM EDTA, and 0.1 mM DTPA in 50 mM TrisHCl (pH 7.4). Before performance of any of the assays, all protein samples also were dialyzed with a metal-free buffer under anaerobic conditions. As with RhoA and Rac1 (Heo et al. J. Biol. Chem. 280, 31003-31010 (2005)), C20S RhoC were expressed in E. coli and purified using anionic and size exclusion columns.\n(§3) (a) A competitive binding assay was performed to determine the binding affinity of Rho GTPase and 6-TGDP. The radiolabeled [^3H]GDP-loaded Rho protein (1 μM) was titrated with various concentrations of 6-TGDP. The titrated Rho protein sample then was spotted onto a nitrocellulose membrane. Each membrane was washed three times with the assay buffer, and radioactivity was determined using a Beckman-Coulter scintillation counter. The radioactivity of the sample (Rho protein-bound [^3H]GDP) was converted into, and thus plotted, as the fraction of mol GDP per mol total Rho protein. The apparent dissociation constant (^appKD) of the Rho protein with [^3H]GDP in the presence of 6-TGDP was determined by using Prism software to fit the titration curve to a hyperbola."}, "RhoC C20S": {"target": "RhoC C20S (Homo sapiens, UniProt P08134, C20S)", "sequence (P08134 whole entry C20S)": "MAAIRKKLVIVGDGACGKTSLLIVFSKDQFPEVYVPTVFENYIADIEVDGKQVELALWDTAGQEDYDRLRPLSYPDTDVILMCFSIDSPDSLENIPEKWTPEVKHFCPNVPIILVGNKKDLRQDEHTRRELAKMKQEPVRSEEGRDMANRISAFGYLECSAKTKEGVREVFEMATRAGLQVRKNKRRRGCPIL", "test": "Competitive binding assay, [3H]GDP-loaded Rho protein titrated with 6-TGDP (FIG. 16A)", "parameters": "made in house; host or cells: E. coli", "experimental": "as §1, §2, §3"}, "[1]": {"details": "determined within this study, read-out: trueKD for GDP"}, "[2]": {"details": "[3H]GDP-loaded Rho protein 1 μM titrated with 6-TGDP, FIG. 16A, read-out: appKD for 6-TGDP"}},
  "note": "Read-outs that look alike come from different tables or passages of the source.",
  "data": [
    {"smiles": "Nc1nc2nc[nH]c2c(=S)[nH]1", "note": "[6-TG, 6-thioguanine]", "values": [
      {"measurement": "thioguanine nucleotide-RhoA disulfide adduct (Cys20)", "setting": "RhoA", "value": "biologically inactive 6-TGNP-RhoA disulfide adduct"},
      {"measurement": "MS peak representing 6-TGNP-RhoA adduct", "setting": "RhoA; both 6-TG and NO, intensity not truly quantitative", "value": "increased"}
    ]},
    {"smiles": "Nc1nc2c(ncn2[C@@H]2O[C@H](COP(=O)(O)OP(=O)(O)O)[C@@H](O)[C@H]2O)c(=O)[nH]1", "note": "[GDP]", "values": [
      {"measurement": "Kd", "setting": "RhoC; [1]", "value": "15 ± 8", "unit": "µM"},
      {"measurement": "Kd", "setting": "RhoC C20S; [1]", "value": "14.2 ± 8", "unit": "µM"}
    ]},
    {"smiles": "Nc1nc2c(ncn2[C@@H]2O[C@H](COP(=O)(O)OP(=O)(O)O)[C@@H](O)[C@H]2O)c(=S)[nH]1", "note": "[6-TGDP, 6-thioguanosine diphosphate]", "values": [
      {"measurement": "Kd", "setting": "RhoC; [2]", "value": 11.8, "unit": "µM"},
      {"measurement": "Kd", "setting": "RhoC; calculated by compensation equation, FIG. 16A, read-out: trueKD for 6-TGDP", "value": 11.1, "unit": "µM"},
      {"measurement": "Kd", "setting": "RhoC C20S; [2]", "value": 11.2, "unit": "µM"},
      {"measurement": "Kd", "setting": "RhoC C20S; calculated by compensation equation, FIG. 16A, fourth value of the list, read-out: trueKD for 6-TGDP", "value": 10.5, "unit": "µM"}
    ]},
    {"smiles": "Nc1nc2[nH]c(S)nc2c(=O)[nH]1", "note": "[8-TG, 2-amino-8-mercapto-1H-purin-6(9H)-one]", "values": [
      {"measurement": "thioguanine nucleotide-RhoA disulfide adduct (Cys20)", "setting": "RhoA", "value": "biologically inactive 8-TGNPRhoA disulfide adduct"}
    ]}
  ]
}
